Data published in article PMC6316393, “Cytotoxic Sesterterpenes from Thai Marine Sponge Hyrtios erectus” (Marine Drugs, 2018).
Like-named read-outs stand apart in the source and are kept apart here.

Legend:
[1] = tested on: MOLT-3 (acute lymphoblastic leukemia); assay: XTT cytotoxicity assay, MOLT-3; settings: for selectivity index (SI), MOLT-3: ratio of IC50 of normal cell (MRC-5) and IC50 of MOLT-3
Procedure: (§1) The SI value is the ratio of IC50 of normal cell (MRC-5) and IC50 of cancer cell line.
(§2) Cytotoxic activity for adhesive cell lines including HepG2, HeLa, HuCCA-1, A549, H69AR, KB, T47D, MDA-MB-231, and MRC-5 cell lines were evaluated with the 3-(4,5-dimethylthiazol-2-yl)-2,5-diphenyltetrazoliumbromide (MTT) assay. For the non-adhesive MOLT-3 cell line, the cytotoxicity was assessed using the 2,3-bis-(2-methoxy-4-nitro-5-sulphenyl-(2H)-tetrazolium-5-carboxanilide (XTT) assay. Etoposide and doxorubicin were used as positive controls (Table 4)

[2] = tested on: HuCCA-1 (human chlolangiocarcinoma); assay: MTT cytotoxicity assay, HuCCA-1
Procedure: as §1, §2

[3] = tested on: MDA-MB-231 (hormone independent breast cancer); assay: MTT cytotoxicity assay, MDA-MB-231
Procedure: as §1, §2

[4] = tested on: HeLa (human cervical carcinoma); assay: MTT cytotoxicity assay, HeLa
Procedure: as §1, §2

[5] = tested on: HepG2 (hepatocarcinoma); assay: MTT cytotoxicity assay, HepG2
Procedure: as §1, §2

[6] = tested on: A549 (non-small-cell lung cancer); assay: MTT cytotoxicity assay, A549
Procedure: as §1, §2

[7] = MTT cytotoxicity assay, MRC-5 normal cells; settings: human
Procedure: as §1, §2

[8] = tested on: MRC-5 (normal embryonic lung cell); assay: MTT cytotoxicity assay, MRC-5 normal cells; settings: read-out: Cytotoxicity IC50, MRC-5; MRC-5 normal cell line, MTT assay
Procedure: as §1, §2

[9] = tested on: L1210 (mouse lymphocytic leukemia); settings: read-out: Cytotoxicity IC50, L1210, cited from earlier work
[10] = tested on: KB (mouth epidermal carcinoma); parameters: method as in PMID 8149454; settings: previously reported; read-out: Cytotoxicity IC50, KB; cited from earlier work
[11] = tested on: T47D (hormone dependent breast cancer); assay: MTT cytotoxicity assay, T47D; format: cell-based; settings: Homo sapiens, T47D cell line
Procedure: (§3) Cytotoxic activity for adhesive cell lines including HepG2, HeLa, HuCCA-1, A549, H69AR, KB, T47D, MDA-MB-231, and MRC-5 cell lines were evaluated with the 3-(4,5-dimethylthiazol-2-yl)-2,5-diphenyltetrazoliumbromide (MTT) assay [25, 26]. For the non-adhesive MOLT-3 cell line, the cytotoxicity was assessed using the 2,3-bis-(2-methoxy-4-nitro-5-sulphenyl-(2H)-tetrazolium-5-carboxanilide (XTT) assay [27]. Etoposide and doxorubicin were used as positive controls (Table 4)

[12] = tested on: H69AR (multidrug resistance small-cell lung cancer); assay: MTT cytotoxicity assay, H69AR; format: cell-based; settings: Homo sapiens, H69AR cell line
Procedure: as §3

[13] = tested on: KB (human epidermoid carcinoma in the mouth); assay: MTT cytotoxicity assay, KB; format: cell-based; settings: KB cell line
Procedure: as §1, §2

[14] = tested on: A549 cells; parameters: method as in PMID 12662110; settings: reported in the literature; read-out: Cytotoxicity IC50, A549; cited from earlier work
[15] = Homo sapiens, MOLT-3, read-out: Cytotoxicity IC50, MOLT-3, MOLT-3 cell line, XTT assay
[16] = Homo sapiens, HuCC-A1, read-out: Cytotoxicity IC50, HuCCA-1, HuCCA-1 cell line, MTT assay
[17] = Homo sapiens, MDA-MB-231, read-out: Cytotoxicity IC50, MDA-MB-231, MDA-MB-231 cell line, MTT assay
[18] = Homo sapiens, HeLa, read-out: Cytotoxicity IC50, HeLa, HeLa cell line, MTT assay
[19] = Homo sapiens, HepG2, read-out: Cytotoxicity IC50, HepG2, HepG2 cell line, MTT assay
[20] = Homo sapiens, A549, read-out: Cytotoxicity IC50, A549, A549 cell line, MTT assay
[21] = MRC-5 cells (normal embryonic lung cells), Cytotoxicity IC50, MRC-5, MRC-5 normal cell line, MTT assay
[22] = read-out: Cytotoxicity IC50, MDA-MB-231, MDA-MB-231 cell line, MTT assay
[23] = read-out: Cytotoxicity IC50, HeLa, HeLa cell line, MTT assay
[24] = Homo sapiens, MOLT-3, read-out: Cytotoxicity IC50, MOLT-3
[25] = Homo sapiens, HuCC-A1, read-out: Cytotoxicity IC50, HuCCA-1
[26] = Homo sapiens, MDA-MB-231, read-out: Cytotoxicity IC50, MDA-MB-231
[27] = Homo sapiens, HeLa, read-out: Cytotoxicity IC50, HeLa
[28] = Homo sapiens, HepG2, read-out: Cytotoxicity IC50, HepG2
[29] = Homo sapiens, A549, read-out: Cytotoxicity IC50, A549

| Molecule | IC50 [1, 15] [µM] | IC50 [2, 16] | IC50 [3, 17] | IC50 [4, 18] | IC50 [5, 19] | IC50 [6, 20] | also measured |
| --- | --- | --- | --- | --- | --- | --- | --- |
| 4-((2R)-2-hydroxy-16-methyloctadecyl)furan-2(5H)-one [Compound 5] |  |  |  |  |  |  | IC50 [1]: 31.8 µM; IC50 [2]: 65.6 µM; IC50 [3]: 89.3 µM; IC50 [4]: 28.8 µM; IC50 [5]: 107 µM; IC50 [6]: 57.2 µM |
| COC1OC(=O)C=C1C(O)CC=C(C=O)CCC=C(C)CCC1=C(C)CCCC1(C)C (stereo not drawn) [Compound 3, seco-manoalide-25-methyl ether] | 15.8 | 24.7 µM | 40.1 µM | 20 µM | 27.9 µM | 41.1 µM |  |
| CC(=O)OC/C(=C\CC1OC(=O)C=C1CO)CC/C=C(\C)CCC1=C(C)CCCC1(C)C (stereo not drawn) [Compound 7, (6Z)-neomanoalide-24-acetate] | 40.1 | > 50 µg/mL | > 50 µg/mL | 88 µM | > 50 µg/mL | > 50 µg/mL |  |
| COC1OC(C2=CC(=O)OC2O)CC=C1CCC=C(C)CCC1=C(C)CCCC1(C)C (stereo not drawn) [Compound 8, 24-O-methylmanoalide] | 1.77 | 11 µM |  |  | 53.5 µM | 16.8 µM | IC50 [7, 21]: 13 µM; selectivity index (SI), MOLT-3 [1]: 7; IC50 [3, 22]: 39.5 µM; IC50 [4, 23]: 8.42 µM |
| COC1OC(C2=CC(=O)OC2O)CC=C1CCC=C(C)CCC1=C(C)CCCC1(C)C (stereo not drawn) [Compound 9, 24-O-methylmanoalide] |  |  |  |  |  |  | IC50 [8]: 10.8 µM; selectivity index (SI), MOLT-3 [1]: 8; IC50 ([1]; read-out: Cytotoxicity IC50, MOLT-3, MOLT-3 cell line, XTT assay): 1.3 µM; IC50 ([2]; read-out: Cytotoxicity IC50, HuCCA-1, HuCCA-1 cell line, MTT assay): 8.6 µM; IC50 [3, 22]: 18.6 µM; selectivity index (SI), HeLa ([4]; ratio of IC50 of normal cell (MRC-5) and IC50 of HeLa): 7; IC50 [4, 23]: 1.51 µM; IC50 ([5]; read-out: Cytotoxicity IC50, HepG2, HepG2 cell line, MTT assay): 27.9 µM; IC50 ([6]; read-out: Cytotoxicity IC50, A549, A549 cell line, MTT assay): 12 µM |
| CC1=C(CC/C(C)=C/CC/C(=C/C[C@@H](O)C2=CC(=O)OC2)CO)C(C)(C)CCC1 [Compound 10, luffariolide B] | 35.5 | > 50 µg/mL | > 50 µg/mL | 78.7 µM | > 50 µg/mL | > 50 µg/mL | IC50 [9]: 3.23 µM |
| CC1=C(CC/C(C)=C/CCC2=CC[C@H](C3=CC(=O)O[C@H]3O)O[C@H]2O)C(C)(C)CCC1 [Compound 11, manoalide] |  |  |  |  |  |  | IC50 [10]: 630 nM; IC50 [1, 24]: 17.4 µM; IC50 [2, 25]: 84.5 µM; IC50 [3, 26]: > 50 µg/mL; IC50 [4, 27]: 87 µM; IC50 ([9]; previously reported): 0.053 µM; IC50 [5, 28]: > 50 µg/mL; IC50 [6, 29]: > 50 µg/mL |
| CC1=C(CC/C(C)=C/CC/C(=C\CC2OC(=O)C=C2CO)CO)C(C)(C)CCC1 (stereo not drawn) [Compound 12, (6E)-neomanoalide] | 37.8 | 119 µM | > 50 µg/mL | 79.2 µM | > 50 µg/mL | > 50 µg/mL | IC50 [9]: 24.4 µM |
| CC1=C(CC/C(C)=C/CC/C(=C/CC2OC(=O)C=C2CO)CO)C(C)(C)CCC1 (stereo not drawn) [Compound 13, (6Z)-neomanoalide] | 34.1 | 94.7 µM | 92 µM | 59.3 µM | 88.7 µM | 114 µM | IC50 [9]: 13.9 µM |
| CC1=C(CC/C(C)=C/CC/C(C=O)=C\C[C@@H](O)C2=CC(=O)OC2O)C(C)(C)CCC1 (stereo partly drawn) [Compound 14, seco-manoalide] |  |  |  |  |  |  | IC50 [7]: 17.5 µM; IC50 [1, 24]: 6.68 µM; IC50 [2, 25]: 47.4 µM; IC50 [3, 26]: 84.1 µM; IC50 [4, 27]: 21.8 µM; IC50 [5, 28]: 102 µM; IC50 [6, 29]: 58.1 µM |
| CC(=O)O[C@H]1C[C@H]2[C@]3(C)CC[C@H]4C(C)(C)CCC[C@]4(C)[C@H]3C[C@@H](O)[C@]2(C)c2cocc21 [Compound 15, scalarafuran] |  | 49.1 µM | 14 µM | 63.1 µM |  |  | IC50 [11]: 28 µM; IC50 [12]: 51.4 µM; IC50 [13]: 58.4 µM |
| CC1=C(CC[C@@](C)(O)[C@@H]2CCC(=O)O2)C(C)(C)CCC1 [Compound 16, cavernosine] | 124 | > 50 µg/mL | > 50 µg/mL | 77.5 µM | > 50 µg/mL | > 50 µg/mL |  |
| CC(=O)O[C@@H]1CC2[C@@]3(C)CCCC(C)(C)C3CC[C@@]2(C)C2CCC3=C(C(=O)OC3)[C@]21C (stereo partly drawn) [Compound 17, 12-acetylscalarolide] |  | 60.8 µM | 60.8 µM | 63.1 µM |  |  | IC50 [11]: 42.1 µM; IC50 [12]: 107 µM; IC50 [13]: 63.1 µM |
| CC1(C)CCC[C@@]2(C)C1CC[C@]1(C)C2C[C@@H](O)[C@]2(C)C3COC(=O)C3=CCC12 (stereo partly drawn) [Compound 18, 12-epi-O-deacetyl-19-deoxyscalarin] |  | 41.5 µM | 5.96 µM | 23.3 µM |  |  | IC50 [11]: 5.18 µM; IC50 [12]: 57 µM; IC50 [13]: 6.99 µM |
| CC(=O)O[C@@H]1CC2[C@@]3(C)CCCC(C)(C)C3CC[C@@]2(C)C2CC=C3C(=O)OC(O)C3[C@]21C (stereo partly drawn) [Compound 19, 12-epi-scalarin] | 13.8 | 60.8 µM |  | 65.3 µM | 75.5 µM | 60.8 µM |  |
| CC1(C)CCC[C@@]2(C)C1CC[C@]1(C)C2C[C@@H](O)[C@]2(C)C3C(=CCC12)C(=O)OC3O (stereo partly drawn) [Compound 20, 12-O-deacetyl-12-epi-scalarin] | 7.64 | 87.1 µM |  |  | 27.4 µM | 73.4 µM | IC50 [14]: 36.8 µM; IC50 [7, 21]: 71 µM; selectivity index (SI), MOLT-3 [1]: 9 |
| COC(=O)c1cc2c(cn1)[nH]c1ccc(O)cc12 [Compound 23, variabine B] | 78 | > 50 µg/mL |  | > 50 µg/mL | > 50 µg/mL | > 50 µg/mL |  |
| COc1cccc2c1C(=O)c1c(O)c3c(c(O)c1C2=O)C[C@@](O)(C(=O)CO)C[C@@H]3O[C@H]1C[C@H](N)[C@H](O)[C@H](C)O1 [Doxorubicin, reference compound] |  | 0.4 ± 0.03 µM | 1.64 ± 0.17 µM | 0.19 µM | 0.36 ± 0.05 µM | 0.35 ± 0.02 µM | IC50 [7, 21]: 3.16 ± 0.1 µM; IC50 [13]: 1.64 ± 0.15 µM |
| COc1cc([C@@H]2c3cc4c(cc3[C@@H](O[C@@H]3O[C@@H]5CO[C@@H](C)O[C@H]5[C@H](O)[C@H]3O)[C@H]3COC(=O)[C@H]23)OCO4)cc(OC)c1O [Etoposide, reference compound] | 0.04 ± 0.01 |  |  |  |  |  |  |
